Reference: patent publication US20070128217A1 (priority 2003, published 2007)

Assays:
[1] = test system: control sera (pooled serum of ten healthy LUMC hospital workers; commercial negative donor pooled serum from the Dutch bloodbank); format: binding, human; set-up: Binding of Control serum LUMC to linear peptides / Binding of Control serum Blood-bank to linear peptides / Binding of Control serum LUMC to looped peptides / Binding of Control Serum Blood-Bank to Looped peptides / Binding of Control serum LUMC to linear peptides of the protein M of SARS-CoV Urbani / Binding of Control serum Blood-bank to linear peptides of the protein M of SARS-CoV Urbani / Binding of Control serum LUMC to looped peptides of the protein M of SARS-CoV Urbani / Binding of Control Serum Blood-Bank to Looped peptides of the protein M of SARS-CoV Urbani: unit not given here
[2] = test system: rabbit serum obtained by immunizing a rabbit with the SARS-CoV strain Frankfurt 1; format: binding; set-up: Binding of a rabbit serum to linear peptides / Binding of a rabbit serum to looped peptides / Rabbit serum linear peptides / Rabbit serum looped peptides / Binding of a rabbit serum to linear peptides of protein N of SARS-CoV Urbani (Rabbit serum linear peptides) / Binding of a rabbit serum to looped/cyclic peptides of protein N of SARS-CoV Urbani (Rabbit serum looped peptides): unit not given here
[3] = test system: antibodies in sera from SARS patients (sera 1a, 1b, 2, 6, 37, 62, London, SARS-yellow, SARS-green); format: binding, human; set-up: Binding of serum 6 to linear peptides of protein X1 of SARS-CoV Urbani / Binding of serum 37 to linear peptides of protein X1 of SARS-CoV Urbani / Binding of serum 6 to looped/cyclic peptide (PEPSCAN-ELISA) / Binding of serum 37 to looped/cyclic peptide (PEPSCAN-ELISA) / Binding of serum 37 to looped/cyclic peptides of protein X1 of SARS-CoV Urbani / Binding of serum 6 to linear peptides of protein X2 / Binding of serum 37 to linear peptides of protein X2 / Binding of serum 37 to looped/cyclic peptides of protein X2 of SARS-CoV Urbani / Binding of serum 6 to linear peptides of protein M of SARS-CoV Urbani / Binding of serum 37 to linear peptides of protein M of SARS-CoV Urbani / Binding of serum 6 to looped/cyclic peptides of protein M of SARS-CoV Urbani / Binding of serum 37 to looped/cyclic peptides of protein M of SARS-CoV Urbani / Binding of serum 6 to linear peptides of protein X3 of SARS-CoV Urbani / Binding of serum 37 to linear peptides of protein X3 of SARS-CoV Urbani / Binding of serum 37 to looped/cyclic peptides of protein X3 of SARS-CoV Urbani / Binding of serum 6 to linear peptides of protein X4 of SARS-CoV Urbani / Binding of serum 37 to linear peptides of protein X4 of SARS-CoV Urbani / Binding of serum 37 to looped/cyclic peptides of protein X4 of SARS-CoV Urbani / Binding of serum 6 to linear peptides of protein X5 of SARS-CoV Urbani / Binding of serum 37 to linear peptides of protein X5 of SARS-CoV Urbani / Binding of serum 37 to looped/cyclic peptides of protein X5 of SARS-CoV Urbani / Binding of serum 6 to linear peptides of protein N of SARS-CoV Urbani / Binding of serum 37 to linear peptides of protein N of SARS-CoV Urbani / Binding of serum 6 to linear peptide (PEPSCAN-ELISA) / Binding of serum 1a to looped/cyclic peptides of protein N of SARS-CoV Urbani / Binding of serum 1b to looped/cyclic peptides of protein N of SARS-CoV Urbani / Binding of serum 2 to looped/cyclic peptides of protein N of SARS-CoV Urbani / Binding of serum 6 to looped/cyclic peptides of protein N of SARS-CoV Urbani / Binding of serum 37 to looped/cyclic peptides of protein N of SARS-CoV Urbani / Binding of serum 62 to looped/cyclic peptides of protein N of SARS-CoV Urbani / Binding of serum London to looped/cyclic peptides of protein N of SARS-CoV Urbani / Binding of serum SARS-green to looped/cyclic peptides of protein N of SARS-CoV Urbani: unit not given here

Question: With WIMLLQFAYSNRNRF as the sequence, how does the “Binding of Control Serum Blood-Bank to Looped peptides of the protein M of SARS-CoV Urbani” value [1] read?
Answer: 0.7

Question: And the “Binding of Control serum Blood-bank to linear peptides of the protein M of SARS-CoV Urbani” value [1]?
Answer: 0.7

Question: And the “Binding of Control serum LUMC to linear peptides of the protein M of SARS-CoV Urbani” value [1]?
Answer: 0.3

Question: And the “Binding of Control serum LUMC to looped peptides of the protein M of SARS-CoV Urbani” value [1]?
Answer: 0.7

Question: And the “Rabbit serum linear peptides” value [2]?
Answer: 0.8

Question: And the “Rabbit serum looped peptides” value [2]?
Answer: 0.3

Question: And the “Binding of serum 1a to linear peptides of protein M of SARS-CoV Urbani” value [3]?
Answer: 0.6

Question: What about the “Binding of serum 1a to looped/cyclic peptides of protein M of SARS-CoV Urbani” value [3] of the same sequence?
Answer: 0.7

Question: What about the “Binding of serum 1b to linear peptides of protein M of SARS-CoV Urbani” value [3] of the same sequence?
Answer: 0.5

Question: And the “Binding of serum 1b to looped/cyclic peptides of protein M of SARS-CoV Urbani” value [3]?
Answer: 0.6

Question: What about the “Binding of serum 2 to linear peptides of protein M of SARS-CoV Urbani” value [3] of the same sequence?
Answer: 0.5

Question: And the “Binding of serum 2 to looped/cyclic peptides of protein M of SARS-CoV Urbani” value [3]?
Answer: 0.4

Question: And the “Binding of serum 6 to linear peptides of protein M of SARS-CoV Urbani” value [3]?
Answer: 0.3

Question: What about the “Binding of serum 6 to looped/cyclic peptides of protein M of SARS-CoV Urbani” value [3] of the same sequence?
Answer: 0.8

Question: What about the “Binding of serum 37 to linear peptides of protein M of SARS-CoV Urbani” value [3] of the same sequence?
Answer: 0.7

Question: What about the “Binding of serum 37 to looped/cyclic peptides of protein M of SARS-CoV Urbani” value [3] of the same sequence?
Answer: 0.4

Question: What about the “Binding of serum 62 to linear peptides of protein M of SARS-CoV Urbani” value [3] of the same sequence?
Answer: 0.7

Question: What about the “Binding of serum 62 to looped/cyclic peptides of protein M of SARS-CoV Urbani” value [3] of the same sequence?
Answer: 0.6

Question: What about the “Binding of serum London to linear peptides of protein M of SARS-CoV Urbani” value [3] of the same sequence?
Answer: 0.3

Question: What about the “Binding of serum London to looped/cyclic peptides of protein M of SARS-CoV Urbani” value [3] of the same sequence?
Answer: 0.2

Question: What about the “Binding of serum SARS-green to linear peptides of protein M of SARS-CoV Urbani” value [3] of the same sequence?
Answer: 0.3

Question: And the “Binding of serum SARS-green to looped/cyclic peptides of protein M of SARS-CoV Urbani” value [3]?
Answer: 0.2

Question: What about the “Binding of serum SARS-yellow to linear peptides of protein M of SARS-CoV Urbani” value [3] of the same sequence?
Answer: 0.1

Question: What about the “Binding of serum SARS-yellow to looped/cyclic peptides of protein M of SARS-CoV Urbani” value [3] of the same sequence?
Answer: 0.3

Question: WIQFMMSRRRLLACL was tested. Which “Binding of Control Serum Blood-Bank to Looped peptides” value [1] did it give?
Answer: 0.3

Question: And the “Binding of Control serum Blood-bank to linear peptides” value [1]?
Answer: 0.6

Question: And the “Binding of Control serum LUMC to linear peptides” value [1]?
Answer: 0.4

Question: And the “Binding of Control serum LUMC to looped peptides” value [1]?
Answer: 0.3

Question: What about the “Binding of a rabbit serum to linear peptides” value [2] of the same sequence?
Answer: 0.5

Question: What about the “Binding of a rabbit serum to looped peptides” value [2] of the same sequence?
Answer: 1.3

Question: And the “Binding of serum 1a to linear peptides of protein X2” value [3]?
Answer: 0.6

Question: What about the “Binding of serum 1a to looped/cyclic peptides of protein X2 of SARS-CoV Urbani” value [3] of the same sequence?
Answer: 0.4

Question: And the “Binding of serum 1b to linear peptides of protein X2” value [3]?
Answer: 0.4

Question: And the “Binding of serum 1b to looped/cyclic peptides of protein X2 of SARS-CoV Urbani” value [3]?
Answer: 0.3

Question: And the “Binding of serum 2 to linear peptides of protein X2” value [3]?
Answer: 0.4

Question: What about the “Binding of serum 2 to looped/cyclic peptides of protein X2 of SARS-CoV Urbani” value [3] of the same sequence?
Answer: 0.1

Question: What about the “Binding of serum 6 to linear peptides of protein X2” value [3] of the same sequence?
Answer: 0.5

Question: What about the “Binding of serum 6 to looped/cyclic peptides of protein X2 of SARS-CoV Urbani” value [3] of the same sequence?
Answer: 0.3

Question: What about the “Binding of serum 37 to linear peptides of protein X2” value [3] of the same sequence?
Answer: 0.5

Question: What about the “Binding of serum 37 to looped/cyclic peptides of protein X2 of SARS-CoV Urbani” value [3] of the same sequence?
Answer: 0.3

Question: And the “Binding of serum 62 to linear peptides of protein X2” value [3]?
Answer: 0.6

Question: What about the “Binding of serum 62 to looped/cyclic peptides of protein X2 of SARS-CoV Urbani” value [3] of the same sequence?
Answer: 0.3

Question: What about the “Binding of serum London to linear peptides of protein X2” value [3] of the same sequence?
Answer: 0.5

Question: What about the “Binding of serum London to looped/cyclic peptides of protein X2 of SARS-CoV Urbani” value [3] of the same sequence?
Answer: 0.3

Question: And the “Binding of serum SARS-green to linear peptides of protein X2” value [3]?
Answer: 0.5

Question: And the “Binding of serum SARS-green to looped/cyclic peptides of protein X2 of SARS-CoV Urbani” value [3]?
Answer: 0.2

Question: What about the “Binding of serum SARS-yellow to linear peptides of protein X2” value [3] of the same sequence?
Answer: 0.7

Question: And the “Binding of serum SARS-yellow to looped/cyclic peptides of protein X2 of SARS-CoV Urbani” value [3]?
Answer: 0.4

Question: How did the “Binding of Control Serum Blood-Bank to Looped peptides” value [1] turn out when WLVIGVAFLAVFQSA was run?
Answer: 0.5

Question: And the “Binding of Control serum Blood-bank to linear peptides” value [1]?
Answer: 0.6

Question: And the “Binding of Control serum LUMC to linear peptides” value [1]?
Answer: 0.6

Question: And the “Binding of Control serum LUMC to looped peptides” value [1]?
Answer: 0.5

Question: What about the “Binding of a rabbit serum to linear peptides” value [2] of the same sequence?
Answer: 0.5

Question: And the “Binding of a rabbit serum to looped peptides” value [2]?
Answer: 0.5

Question: And the “Binding of serum 1a to linear peptides of protein X1 of SARS-CoV Urbani” value [3]?
Answer: 0.6

Question: And the “Binding of serum 1a to looped/cyclic peptide (PEPSCAN-ELISA)” value [3]?
Answer: 0.5

Question: And the “Binding of serum 1b to linear peptides of protein X1 of SARS-CoV Urbani” value [3]?
Answer: 0.5

Question: What about the “Binding of serum 1b to looped/cyclic peptide (PEPSCAN-ELISA)” value [3] of the same sequence?
Answer: 0.3

Question: And the “Binding of serum 2 to linear peptides of protein X1 of SARS-CoV Urbani” value [3]?
Answer: 0.5

Question: What about the “Binding of serum 2 to looped/cyclic peptide (PEPSCAN-ELISA)” value [3] of the same sequence?
Answer: 0.4

Question: What about the “Binding of serum 6 to linear peptides of protein X1 of SARS-CoV Urbani” value [3] of the same sequence?
Answer: 0.4

Question: What about the “Binding of serum 6 to looped/cyclic peptide (PEPSCAN-ELISA)” value [3] of the same sequence?
Answer: 0.2

Question: And the “Binding of serum 37 to linear peptides of protein X1 of SARS-CoV Urbani” value [3]?
Answer: 0.7

Question: What about the “Binding of serum 37 to looped/cyclic peptide (PEPSCAN-ELISA)” value [3] of the same sequence?
Answer: 0.5

Question: What about the “Binding of serum 62 to linear peptides of protein X1 of SARS-CoV Urbani” value [3] of the same sequence?
Answer: 0.6

Question: What about the “Binding of serum 62 to looped/cyclic peptide (PEPSCAN-ELISA)” value [3] of the same sequence?
Answer: 0.5

Question: What about the “Binding of serum London to linear peptides of protein X1 of SARS-CoV Urbani” value [3] of the same sequence?
Answer: 0.3

Question: What about the “Binding of serum London to looped/cyclic peptide (PEPSCAN-ELISA)” value [3] of the same sequence?
Answer: 0.2

Question: What about the “Binding of serum SARS-green to linear peptides of protein X1 of SARS-CoV Urbani” value [3] of the same sequence?
Answer: 0.3

Question: And the “Binding of serum SARS-green to looped/cyclic peptide (PEPSCAN-ELISA)” value [3]?
Answer: 0.2

Question: And the “Binding of serum SARS-yellow to linear peptides of protein X1 of SARS-CoV Urbani” value [3]?
Answer: 0.4

Question: And the “Binding of serum SARS-yellow to looped/cyclic peptide (PEPSCAN-ELISA)” value [3]?
Answer: 0.5
